According to patent publication US20040248918A1, “N-phenyl-2-pyrimidine-amine derivatives and process for the preparation thereof” (IL YANG PHARM. CO., LTD., priority 2003, published 2004):
Read-outs that look alike come from different tables or passages of the source.

Experiments:
[1] = Comparative pharmacokinetic test in white rats; type: in vivo, white rats (Sprague-Dawley); conditions: rat
Protocol: On the previous day to the test, white rats (Sprague-Dawley, 250˜280 g, male) were put under anesthesia by pentobarbital sodium (50 mg/kg, I.P.). Then, cannula (polyethylene tube; diameter: 0.58mm) was introduced into the rats via the carotid artery and jugular vein, and drawn out to the back. After the operation, the rats were fasted for 16 hours and used for the test. […] Blood was collected in 0, 0.5, 1, 1.5, 2, 2.5, 3, 3.5, 4, 4.5, 5, 6, 8, 10, 12, and 24 hours from the carotid artery. The samples for HPLC analysis were prepared using the collected blood according to the following procedure and were analyzed under the following conditions.
Blood was collected by an amount of 0.5 ml at each prearranged time and centrifuged at 15000 rpm for 7 minutes to separate […] of plasma. In order to remove proteins, MeOH was added in an amount of […], twice as much as the amount of plasma, and the mixture was shaken for 30 minutes. The mixture was centrifuged again at 15000 rpm for 5 minutes to give protein free supernatant, which was then analyzed by HPLC.
Flow rate: 1.0 ml/min, UV detection at 267 nm
Column: 4.6×150 mm, 5C18-AR-II, COSMOSIL
Eluent: Mixture of ion pair sample (420 ml) and MeOH (580 ml)
Ion pair sample: 7.5 g of 1-octanesulfonic acid was dissolved in 800 ml of water. The resulting mixture was adjusted to pH 2.5 using phosphoric acid and diluted with water to 1000 ml volume.
Here, the pharmacokinetic parameters are Tmax (time to reach the maximum blood concentration), Cmax (maximum blood concentration), AUC (area under the curve of time-blood concentration), and T1/2 (half time in blood), and the AUC was calculated under trapezoid rule (see Tables 6, 7 and FIGS. 1, 2).

[2] = tested on: encephalophyma cell of A172; assay: Growth inhibition of A172 (MTT); type: cell-based; conditions: for IC50: Homo sapiens, A 172, read-out: IC50
Protocol: (§1) In the present experiment, the inhibitory activity of the compound of formula (1) was determined against the growth of K562 cancer cell. First, the cells were allowed to stand in RPMI (Roswell Park Memorial Institute)-1640 medium containing 10% (v/v) fetal bovine serum in an incubator of 37° C. and 5% by volume of CO2. The cancer cells (1000 cells) were transferred to a 96-well plate, and the test compound was diluted. The plate was allowed to stand under the above mentioned conditions for 2 days. After this treatment, to the cells was added 0.2% MTT (3-[4,5-dimethylthiazol-2-yl]-2,5-diphenyltetrazolium bromide) solution, and the resulting mixture was allowed to stand under the constant temperature-condition for 4 hours. The supernatant was removed to leave the resulting crystal. DMSO was added to dissolve the crystal, and the absorbance of the solution was measured at 540 nm. IC50 value was calculated using a computer system according to the following formula: […]
(§2) The test was performed according to the same procedure as Experiment 1.

[3] = tested on: colon cancer cell of SNU-C1; assay: Growth inhibition of SNU-C1 (MTT); type: cell-based; conditions: for IC50: Homo sapiens, read-out: IC50
[4] = tested on: K562 cancer cell (CML cell line); assay: Growth inhibition of K562 cancer cell (MTT); type: cell-based; conditions: for IC50: K562, 2 days, MTT; for Improved activity versus Imatinib mesylate: K562
Protocol: In the present experiment, the inhibitory activity of the compound of formula (1) was determined against the growth of K562 cancer cell. First, the cells were allowed to stand in RPMI (Roswell Park Memorial Institute)-1640 medium containing 10% (v/v) fetal bovine serum in an incubator of 37° C. and 5% by volume of CO2. The cancer cells (1000 cells) were transferred to a 96-well plate, and the test compound was diluted. The plate was allowed to stand under the above mentioned conditions for 2 days. […] The supernatant was removed to leave the resulting crystal.

[5] = tested on: lung cancer cell (A549); assay: Growth inhibition of A549 (MTT); type: cell-based; set-up: IC50 as fraction of that of Imatinib mesylate: unit not given beside the values; conditions: for IC50: Homo sapiens
Protocol: as §1, §2

[6] = tested on: L1210 cancer cell (leukemia cell line); assay: Growth inhibition of L1210 cancer cell (MTT); type: cell-based; conditions: Mus musculus
Protocol: as §1
In the present experiment, the inhibitory activity of the compound of formula (1) was determined against the growth of L1210 cancer cell. The test was performed according to the same procedure as Experiment 1.

[7] = tested on: cervical cancer cell of HeLa229; assay: Growth inhibition of HeLa 229 (MTT); type: cell-based; conditions: for IC50: Homo sapiens, read-out: IC50
[8] = tested on: prostatic cancer cell (DU-145); assay: Growth inhibition of DU-145 (MTT); type: cell-based; set-up: IC50 as fraction of that of Imatinib mesylate: unit not given beside the values; conditions: for IC50: Homo sapiens
Protocol: as §1, §2

[9] = tested on: U937 cancer cell (monocyte like leukemia cell line); assay: Growth inhibition of U937 cancer cell (MTT); type: cell-based; conditions: for IC50: Homo sapiens, U-937
Protocol: as §1
In the present experiment, the inhibitory activity of the compound of formula (1) was determined against the growth of U937 cancer cell. The test was performed according to the same procedure as Experiment 1.

[10] = tested on: bladder cancer cell of HT-1197; assay: Growth inhibition of HT-1197 (MTT); type: cell-based; conditions: for IC50: Homo sapiens, HT1197, read-out: IC50
Protocol: as §1, §2

[11] = tested on: lymphoma cell (RPMI-6666); assay: Growth inhibition of RPMI-6666 (MTT); type: cell-based; conditions: for IC50: Homo sapiens
Protocol: as §1, §2

[12] = tested on: breast cancer cell (MCF-7); assay: Growth inhibition of MCF-7 (MTT); type: cell-based; set-up: IC50 as fraction of that of Imatinib mesylate: unit not given beside the values; conditions: for IC50: Homo sapiens, MCF7
Protocol: as §1, §2

[13] = tested on: ovarian cancer cell (SK-OV-03); assay: Growth inhibition of SK-OV-03 (MTT); type: cell-based; set-up: IC50 as fraction of that of Imatinib mesylate: unit not given beside the values
Protocol: as §1, §2

[14] = tested on: hematologic malignancy cell (HL-60); assay: Growth inhibition of HL-60 (MTT); type: cell-based; set-up: IC50 as fraction of that of Imatinib mesylate: unit not given beside the values; conditions: for IC50: Homo sapiens
[15] = tested on: oral epithelial cancer cell (KB); assay: Growth inhibition of KB (MTT); type: cell-based; set-up: IC50 as fraction of that of Imatinib mesylate: unit not given beside the values; conditions: for IC50: Homo sapiens
Protocol: as §1, §2

[16] = tested on: pancreatic cancer cell of CAPAN-2; assay: Growth inhibition of CAPAN-2 (MTT); type: cell-based; conditions: for Improved activity versus 5-Fu / Improved activity versus cisplatin: CAPAN-2; for IC50: Homo sapiens, Capan-2, read-out: IC50
[17] = male, Sprague-Dawley, plasma, po, 50 mg/kg, P.O.
[18] = Homo sapiens, K562, 48 h, read-out: IC50
[19] = male, Sprague-Dawley, plasma, iv, 50 mg/kg, I.V.

Compound | IC50 [2] [µg/mL] | Improved activity versus 5-Fu [3] [times] | Improved activity versus Imatinib mesylate [3] | Improved activity versus cisplatin [3] | IC50 [3] [µg/mL] | IC50 [4, 18] [µg/mL] | IC50 [5] [µg/mL] | IC50 [6] [µg/mL] | IC50 [7] [µg/mL] | IC50 [8] [µg/mL] | IC50 [9] [µg/mL] | IC50 [10] [µg/mL] | IC50 [11] [µg/mL] | IC50 [12] [µg/mL] | IC50 [13] [µg/mL] | IC50 [14] [µg/mL] | IC50 [15] [µg/mL] | Improved activity versus 5-Fu [16] [times] | Improved activity versus cisplatin [16] | IC50 [16] [µg/mL] | further results
CS(=O)(=O)O.Cc1ccc(NC(=O)c2ccc(CNN3CCN(C)CC3)cc2)cc1Nc1nccc(-c2cccnc2)n1 [Example 4, 4-(4-methylpiperazin-1-ylaminomethyl)-N-[4-methyl-3-(4-(pyridin-3-yl)pyrimidin-2-yl)aminophenyl]benzamide methanesulfonate] | 39.3 | 9 | 3 times | 30 times | 10 | ≤ 0.1 | 46.6 | 26.9 | 48.5 | 41.3 | 0.9 | 50.1 | 33.8 | > 50 | > 50 | 27.8 | 35 | 17 | 9 times | 56.3 | Cmax [1, 17]: 3160 ng/mL; Tmax [1, 17]: 2 h; AUC ([1]; male, Sprague-Dawley, plasma, po, 50 mg/kg, P.O., trapezoid rule): 23000 ng·h/mL; AUC relative to Imatinib mesylate ([1]; both per oral 100 mg/kg): about twice; Cmax relative to Imatinib mesylate ([1]; both per oral 100 mg/kg): about twice; IC50 ([4]; methanesulfonate): <0.10 µg/mL; Improved activity versus Imatinib mesylate ([4]; listed as example 4, methanesulfonate): 5 times; Improved activity versus Imatinib mesylate ([4]; methanesulfonate): ≥ 5 times; Improved activity versus Imatinib mesylate [9]: 30 times
CN1CCCN(Cc2ccc(C(=O)Nc3ccc(Nc4nccc(-c5cccnc5)n4)cc3)cc2)CC1.CS(=O)(=O)O [Example 10, 4-(4-methylhomopiperazin-1-ylmethyl)-N-[4-(4-(pyridin-3-yl)pyrimidin-2-yl)aminophenyl]benzamide methanesulfonate] | 5.5 | > 80 | more than 25 times | more than 250 times | 1.2 | 3.85 | 3.5 | 3.4 | 5.5 | 5.51 | 7.3 | 1.7 | 2.12 | 6.96 | 25.5 | 4.28 | 8.99 | > 20 | more than 10 times | 45.9 | AUC [1, 19]: 8920 ng·h/mL; half-life [1, 19]: 82.2 min; Improved activity versus 5-Fu [2]: more than 18 times; Improved activity versus Imatinib mesylate [2]: more than 8 times; IC50 as fraction of that of Imatinib mesylate [5]: 1/10; Improved activity versus Imatinib mesylate [7]: more than 8 times; IC50 as fraction of that of Imatinib mesylate [8]: 1/2; Improved activity versus 5-Fu [10]: > 55 times; Improved activity versus Imatinib mesylate [10]: > 32 times; Improved activity versus cisplatin [10]: more than 4.4 times; IC50 as fraction of that of Imatinib mesylate [11]: 1/15; IC50 as fraction of that of Imatinib mesylate [12]: 1/7; IC50 as fraction of that of Imatinib mesylate [13]: 1/2; IC50 as fraction of that of Imatinib mesylate [14]: 1/8; IC50 as fraction of that of Imatinib mesylate [15]: 1/5
